Laboratory results as given in patent publication US20230255966A1, “A COMBINATION OF A CBP/P300 BROMODOMAIN INHIBITOR AND AN EGFR INHIBITOR FOR USE IN TREATING EGFR-MUTANT NSCLC” (TOLREMO THERAPEUTICS AG, priority 2020, published 2023).

Experiments:
BRD2(1) = biological target: T1, BRD2(1) (Homo sapiens, UniProt P25440); experiment: BROMOscan BromoKdMAX; type: binding
T1 construct: T7 phage strains displaying bromodomains were grown in parallel; purchased DiscoverX; host or cells: T7 phage in E. coli host derived from BL21
Protocol: (§1) A BromoKdMAX was performed at DiscoverX.
(§2) The assay principle is the following: BROMOscan™ is a novel industry leading platform for identifying small molecule bromodomain inhibitors. Based on proven KINOMEscan™ technology, BRO-MOscan™ employs a proprietary ligand binding site-directed competition assay to quantitatively measure interactions between test compounds and bromodomains.
(§3) The assay was conducted as follows: For the Bromodomain assays, T7 phage strains displaying bromodomains were grown in parallel in 24-well blocks in an E. coli host derived from the BL21 strain. E. coli were grown to log-phase and infected with T7 phage from a frozen stock (multiplicity of infection=0.4) and incubated with shaking at 32° C. until lysis (90-150 minutes). The lysates were centrifuged (5,000×g) and filtered (0.2 μm) to remove cell debris. […] The liganded beads were blocked with excess biotin and washed with blocking buffer (SeaBlock (Pierce), 1% BSA, 0.05% Tween 20, 1 mM DTT) to remove unbound ligand and to reduce non-specific phage binding. […] Test compounds were prepared as 1000× stocks in 100% DMSO. Kds were determined using an 11-point 3-fold compound dilution series with one DMSO control point. […] The compounds were then diluted directly into the assays such that the final concentration of DMSO was 0.09%. All reactions performed in polypropylene 384-well plates. Each was a final volume of 0.02 ml. […] The bromodomain concentration in the eluates was measured by qPCR.

BRD2(1, 2) = biological target: T2, BRD2(1, 2) (Homo sapiens, UniProt P25440); experiment: BROMOscan BromoKdMAX; type: binding
T2 construct: T7 phage strains displaying bromodomains were grown in parallel; purchased DiscoverX; host or cells: T7 phage in E. coli host derived from BL21
Protocol: as §1, §2, §3

BRD2(2) = biological target: T3, BRD2(2) (Homo sapiens, UniProt P25440); experiment: BROMOscan BromoKdMAX; type: binding
T3 construct: T7 phage strains displaying bromodomains were grown in parallel; purchased DiscoverX; host or cells: T7 phage in E. coli host derived from BL21
Protocol: as §1, §2, §3

BRD4(1) = biological target: T4, BRD4(1) (Homo sapiens, UniProt O60885); experiment: BROMOscan BromoKdMAX; type: binding
T4 construct: T7 phage strains displaying bromodomains were grown in parallel; purchased DiscoverX; host or cells: T7 phage in E. coli host derived from BL21
Protocol: as §1, §2, §3

BRD4(1, 2) = biological target: T5, BRD4(1, 2) (Homo sapiens, UniProt O60885); experiment: BROMOscan BromoKdMAX; type: binding
T5 construct: T7 phage strains displaying bromodomains were grown in parallel; purchased DiscoverX; host or cells: T7 phage in E. coli host derived from BL21
Protocol: as §1, §2, §3

BRD4(2) = biological target: T6, BRD4(2) (Homo sapiens, UniProt O60885); experiment: BROMOscan BromoKdMAX; type: binding
T6 construct: T7 phage strains displaying bromodomains were grown in parallel; purchased DiscoverX; host or cells: T7 phage in E. coli host derived from BL21
Protocol: as §1, §2, §3

[1] = biological target: T7, BRD4(full-length, short-iso.) (Homo sapiens, UniProt O60885); experiment: BROMOscan BromoKdMAX; type: binding
T7 construct: BRD4 (full-length, short-iso.); purchased DiscoverX; host or cells: T7 phage in E. coli host derived from BL21 (general protocol)
Protocol: as §1, §2, §3

BRD7 = biological target: T8, BRD7 (Homo sapiens, UniProt Q9NPI1); experiment: BROMOscan BromoKdMAX; type: binding
T8 construct: T7 phage strains displaying bromodomains were grown in parallel; purchased DiscoverX; host or cells: T7 phage in E. coli host derived from BL21
Protocol: as §1, §2, §3

BRD8(1) = biological target: T9, BRD8(1) (Homo sapiens, UniProt Q9H0E9); experiment: BROMOscan BromoKdMAX; type: binding
T9 construct: T7 phage strains displaying bromodomains were grown in parallel; purchased DiscoverX; host or cells: T7 phage in E. coli host derived from BL21
Protocol: as §1, §2, §3

BRD8(2) = biological target: T10, BRD8(2) (Homo sapiens, UniProt Q9H0E9); experiment: BROMOscan BromoKdMAX; type: binding
T10 construct: T7 phage strains displaying bromodomains were grown in parallel; purchased DiscoverX; host or cells: T7 phage in E. coli host derived from BL21
Protocol: as §1, §2, §3

BRD9 = biological target: T11, BRD9 (Homo sapiens, UniProt Q9H8M2); experiment: BROMOscan BromoKdMAX; type: binding
T11 construct: T7 phage strains displaying bromodomains were grown in parallel; purchased DiscoverX; host or cells: T7 phage in E. coli host derived from BL21
Protocol: as §1, §2, §3

BRDT(1) = biological target: T12, BRDT(1) (Homo sapiens, UniProt Q58F21); experiment: BROMOscan BromoKdMAX; type: binding
T12 construct: T7 phage strains displaying bromodomains were grown in parallel; purchased DiscoverX; host or cells: T7 phage in E. coli host derived from BL21
Protocol: as §1, §2, §3

BRDT(1, 2) = biological target: T13, BRDT(1, 2) (Homo sapiens, UniProt Q58F21); experiment: BROMOscan BromoKdMAX; type: binding
T13 construct: T7 phage strains displaying bromodomains were grown in parallel; purchased DiscoverX; host or cells: T7 phage in E. coli host derived from BL21
Protocol: as §1, §2, §3

BRDT(2) = biological target: T14, BRDT(2) (Homo sapiens, UniProt Q58F21); experiment: BROMOscan BromoKdMAX; type: binding
T14 construct: T7 phage strains displaying bromodomains were grown in parallel; purchased DiscoverX; host or cells: T7 phage in E. coli host derived from BL21
Protocol: as §1, §2, §3

BRPF1 = biological target: T15, BRPF1 (Homo sapiens, UniProt P55201); experiment: BROMOscan BromoKdMAX; type: binding
T15 construct: T7 phage strains displaying bromodomains were grown in parallel; purchased DiscoverX; host or cells: T7 phage in E. coli host derived from BL21
Protocol: as §1, §2, §3

CECR2 = biological target: T16, CECR2 (Homo sapiens, UniProt Q9BXF3); experiment: BROMOscan BromoKdMAX; type: binding
T16 construct: T7 phage strains displaying bromodomains were grown in parallel; purchased DiscoverX; host or cells: T7 phage in E. coli host derived from BL21
Protocol: as §1, §2, §3

PCAF = biological target: T17, PCAF (Homo sapiens, UniProt Q92831); experiment: BROMOscan BromoKdMAX; type: binding
T17 construct: T7 phage strains displaying bromodomains were grown in parallel; purchased DiscoverX (BROMOscan / BromoKdMAX service); host or cells: T7 phage in E. coli host derived from BL21
Protocol: as §1, §2, §3

TAF1(2) = biological target: T18, TAF1(2) (Homo sapiens, UniProt P21675); experiment: BROMOscan BromoKdMAX; type: binding
T18 construct: T7 phage strains displaying bromodomains were grown in parallel; purchased DiscoverX (BROMOscan / BromoKdMAX service); host or cells: T7 phage in E. coli host derived from BL21
Protocol: as §1, §2, §3

TAF1L(2) = biological target: T19, TAF1L(2) (Homo sapiens, UniProt Q8IZX4); experiment: BROMOscan BromoKdMAX; type: binding
T19 construct: T7 phage strains displaying bromodomains were grown in parallel; purchased DiscoverX (BROMOscan / BromoKdMAX service); host or cells: T7 phage in E. coli host derived from BL21
Protocol: as §1, §2, §3

TRIM24(Bromo.) = biological target: T20, TRIM24(Bromo.) (Homo sapiens, UniProt O15164); experiment: BROMOscan BromoKdMAX; type: binding
T20 construct: TRIM24(Bromo.); purchased DiscoverX (BROMOscan / BromoKdMAX service); host or cells: T7 phage in E. coli host derived from BL21
Protocol: as §1, §2, §3

TRIM24(PHD, Bromo.) = biological target: T21, TRIM24(PHD, Bromo.) (Homo sapiens, UniProt O15164); experiment: BROMOscan BromoKdMAX; type: binding
T21 construct: TRIM24(PHD, Bromo.); purchased DiscoverX (BROMOscan / BromoKdMAX service); host or cells: T7 phage in E. coli host derived from BL21
Protocol: as §1, §2, §3

WDR9(2) = biological target: T22, WDR9(2) (Homo sapiens, UniProt Q9NSI6); experiment: BROMOscan BromoKdMAX; type: binding
T22 construct: T7 phage strains displaying bromodomains were grown in parallel; purchased DiscoverX (BROMOscan / BromoKdMAX service); host or cells: T7 phage in E. coli host derived from BL21
Protocol: as §1, §2, §3

HCC827 cells = experiment: Gene expression analysis (qPCR of ALPP and HOPX); type: cell-based; conditions: HCC827, 1 μM CBP/p300 inhibitor in presence of Gefitinib, 24 h
Protocol: Equal amount of cDNA was then subjected to qPCR analysis using the Kapa SYBR fast kit (KK4611) in a 384 well format in a Roche Light Cycler 480. Gene expression of genes was evaluated by subtraction of housekeeping gene CT-values (b-Actin) from CT of the genes of interest, and by calculating the ΔΔCT by subtracting the DMSO control value from sample of interest to finally calculate fold change differences of treated versus control treated sample.
Data is from 2 independent experiments with qPCRs in duplicate (mean±SEM) (FIG. 1C-D).

NCI-H1975 cells = experiment: Label-free determination of cell proliferation (CELIGO); type: cell-based
HCC4006 cells = experiment: as above; conditions: 21 days (FIG. 10)
Protocol: 2000 HCC4006 (ATCC; CRL2871) were seeded into 96 well plates (Greiner BioOne 655090) one day prior to drug treatment in RPMI medium containing 10% FCS and 2 mM L-Glutamine. The next day wells were imaged label-free using brightfield imaging on a CELIGO Image Cytometer to determine the initial cell number. Subsequently cells were treated with either DMSO, with single drugs (osimertinib and each of the CBP/p300 bromodomain inhibitors) or drug combinations of 100 nM osimertinib and one CBP/p300 bromodomain inhibitor with drug concentrations given below. Plates were regularly imaged over weeks using brightfield mode (CELIGO Imaging Cytometer) to track cell proliferation in each well over time. Growth medium and treatments were replenished twice weekly. […] Cell numbers were determined using CELIGO software's built-in “direct cell counting” analysis tool in the brightfield mode.

T20 sequence (O15164 899-1004 limits assumed): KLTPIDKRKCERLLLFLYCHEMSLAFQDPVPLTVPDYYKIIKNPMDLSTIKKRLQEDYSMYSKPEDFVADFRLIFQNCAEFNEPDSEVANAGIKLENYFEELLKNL
T21 sequence (O15164 824-1006 limits assumed): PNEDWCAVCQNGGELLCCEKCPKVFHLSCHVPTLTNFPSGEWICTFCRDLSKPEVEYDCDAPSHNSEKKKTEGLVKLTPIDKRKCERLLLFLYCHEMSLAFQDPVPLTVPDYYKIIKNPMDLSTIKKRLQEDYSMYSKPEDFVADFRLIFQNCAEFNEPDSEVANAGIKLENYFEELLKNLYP
T1 sequence (P25440 74-180 limits assumed): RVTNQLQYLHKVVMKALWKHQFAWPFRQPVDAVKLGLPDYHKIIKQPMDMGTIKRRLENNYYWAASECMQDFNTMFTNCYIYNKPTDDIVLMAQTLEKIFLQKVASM
T9 sequence (Q9H0E9 706-811 limits assumed): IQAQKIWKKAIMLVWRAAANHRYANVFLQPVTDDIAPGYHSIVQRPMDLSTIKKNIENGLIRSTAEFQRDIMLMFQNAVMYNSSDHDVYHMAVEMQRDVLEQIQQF
T17 sequence (Q92831 723-827 limits assumed): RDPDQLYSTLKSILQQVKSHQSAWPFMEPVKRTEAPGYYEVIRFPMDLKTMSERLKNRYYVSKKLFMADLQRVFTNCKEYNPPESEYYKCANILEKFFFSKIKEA
T2 sequence (P25440 71-455 limits assumed): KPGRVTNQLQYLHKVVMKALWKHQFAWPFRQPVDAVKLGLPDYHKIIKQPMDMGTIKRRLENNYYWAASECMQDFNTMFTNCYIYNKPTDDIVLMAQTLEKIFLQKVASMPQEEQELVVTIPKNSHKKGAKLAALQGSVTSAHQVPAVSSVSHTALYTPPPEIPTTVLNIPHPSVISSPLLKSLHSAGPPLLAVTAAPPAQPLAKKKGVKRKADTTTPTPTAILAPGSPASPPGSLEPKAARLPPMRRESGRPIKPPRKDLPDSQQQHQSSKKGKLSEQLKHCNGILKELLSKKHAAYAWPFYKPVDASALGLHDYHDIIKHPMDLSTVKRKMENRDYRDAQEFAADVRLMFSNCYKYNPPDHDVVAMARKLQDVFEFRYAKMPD
T19 sequence (Q8IZX4 1517-1626 limits assumed): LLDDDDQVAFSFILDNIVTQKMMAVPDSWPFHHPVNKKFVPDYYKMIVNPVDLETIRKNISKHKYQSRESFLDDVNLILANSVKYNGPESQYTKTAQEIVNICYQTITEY
T22 sequence (Q9NSI6 1313-1418 limits assumed): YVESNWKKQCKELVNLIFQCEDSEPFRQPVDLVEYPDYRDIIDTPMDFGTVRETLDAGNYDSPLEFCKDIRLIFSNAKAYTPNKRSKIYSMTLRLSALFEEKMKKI
T16 sequence (Q9BXF3 434-538 limits assumed): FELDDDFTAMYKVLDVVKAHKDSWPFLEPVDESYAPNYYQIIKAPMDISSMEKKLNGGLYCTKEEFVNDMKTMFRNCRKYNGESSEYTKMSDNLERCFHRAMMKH
T11 sequence (Q9H8M2 136-240 limits assumed): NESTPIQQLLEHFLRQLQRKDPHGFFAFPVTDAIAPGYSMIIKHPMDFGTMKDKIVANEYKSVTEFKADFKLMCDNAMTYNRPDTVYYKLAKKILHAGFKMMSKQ
T8 sequence (Q9NPI1 131-235 limits assumed): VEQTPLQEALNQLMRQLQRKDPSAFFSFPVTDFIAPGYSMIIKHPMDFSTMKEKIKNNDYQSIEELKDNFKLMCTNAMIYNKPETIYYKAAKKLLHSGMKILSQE
T3 sequence (P25440 344-453 limits assumed): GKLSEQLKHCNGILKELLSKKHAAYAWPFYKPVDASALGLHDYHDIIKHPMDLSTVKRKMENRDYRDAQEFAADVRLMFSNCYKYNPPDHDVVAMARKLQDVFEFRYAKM
T10 sequence (Q9H0E9 1099-1207 limits assumed): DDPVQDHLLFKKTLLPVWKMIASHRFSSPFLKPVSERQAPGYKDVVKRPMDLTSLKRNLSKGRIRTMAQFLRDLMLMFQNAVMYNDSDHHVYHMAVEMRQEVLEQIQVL
T18 sequence (P21675 1519-1628 limits assumed): as the sequence (Q8IZX4 1517-1626 limits assumed) above, with M46V, V51M, I102V, I107L counted along it
T15 sequence (P55201 628-732 limits assumed): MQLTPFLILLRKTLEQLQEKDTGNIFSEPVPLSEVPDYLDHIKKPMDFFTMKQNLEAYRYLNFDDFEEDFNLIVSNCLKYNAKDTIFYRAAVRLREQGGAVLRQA

- Kd (BRD2(1)): 0.23 µM
- Kd (BRD2(1, 2)): 0.61 µM
- Kd (BRD2(2)): 2.1 µM
- Kd (BRD4(1)): 0.25 µM
- Kd (BRD4(1, 2)): 6.9 µM
- Kd (BRD4(2)): 5.2 µM
- Kd [1]: 0.44 µM
- Kd (BRD7): 5.1 µM
- Kd (BRD8(1)): > 10 µM
- Kd (BRD8(2)): > 10 µM
- Kd (BRD9): 0.79 µM
- Kd (BRDT(1)): 0.39 µM
- Kd (BRDT(1, 2)): 2.4 µM
- Kd (BRDT(2)): 8.9 µM
- Kd (BRPF1): 1.4 µM
- Kd (CECR2): > 10 µM
- Kd (PCAF): > 10 µM
- Kd (TAF1(2)): 7.9 µM
- Kd (TAF1L(2)): > 10 µM
- Kd (TRIM24(Bromo.)): 0.68 µM
- Kd (TRIM24(PHD, Bromo.)): 1.9 µM
- Kd (WDR9(2)): > 10 µM
Structure (SMILES): CO[C@H]1CC[C@H](n2c([C@@H]3CCCC(=O)N3c3ccc(F)c(F)c3)nc3cc(-c4c(C)noc4C)ccc32)CC1 [CCS1477]
- EGFR inhibitor induced gene expression (ALPP, HOPX) (HCC827 cells): reverse EGFR inhibitor induced gene expression
- Growth long-term (NCI-H1975 cells; NCI-H1975, 50 nM osimertinib with 2.0, 0.5 or 0.125 μM co-treatment (FIG. 5)): delayed
- Effect on cell numbers on their own (NCI-H1975 cells; NCI-H1975, 2 μM single agent (FIG. 5)): no/weak effect on cell numbers
- Development of drug resistance / re-growth (HCC4006 cells; HCC4006, combined with 100 nM osimertinib): prevent the development of drug resistance
- Effect on cell proliferation on their own (HCC4006 cells; HCC4006, single agent (1 μM Compound A, 0.2 μM Compound C, 0.2 μM CCS1477, 1 μM FT-6876, 0.2 μM GNE-781)): do not affect cell proliferation
